Reference: US6172110A, “Acylated betulin and dihydrobetulin derivatives, preparation thereof and use thereof” (The University of North Carolina at Chapel Hill, priority 1999, dated 2001)
“Also recorded” adds a separate entry of the source. Read-outs that look alike come from different tables or passages of the source.

How the values were obtained:
[1] = Cytotoxicity: cell counts of mock-infected H9 cells; format: cell-based; conditions: human
Method: (§1) The biological evaluation of HIV-1 inhibition was carried out according to established protocols, (Kashiwada, Y., et al., J Med Chem. 39:1016-1017 (1996); Hashimoto, F., et al., Bioorg. & Med Chem. 5:2133-2143 (1997)). The T cell line, H9, was maintained in continuous culture with complete medium (RPMI 1640 with 10% fetal calf serum supplemented with L-glutamine at 5% CO2 and 37° C.). Aliquot of this cell line were only used in experiments when in log-phase growth. Test samples were first dissolved in dimethyl sulfoxide. The following final drug concentrations were routinely used for screening: 100, 20, 4 and 0.8 μg/ml. For active agents, additional dilutions were prepared for subsequent testing so that an accurate EC50 value (defined below) could be achieved. As the test samples were being prepared, an aliquot of the H9 cell line was infected with HIV-1 (IIIB isolate) while another aliquot was mock-infected with complete medium. […] The appropriate amount of virus for a multiplicity of infection (moi) between 0.1 and 0.01 Infectious Units/cell was added to the first aliquot of H9 cells. The other aliquot only received culture medium, and these mock-infected cells were used for toxicity determinations (IC50, defined below). After a 4 h incubation at 37° C. and 5% CO2, both cell populations were washed three times with fresh medium and then added to the appropriate wells of a 24 well-plate containing the various concentrations of the test drug or culture medium (positive infected control/negative drug control). In addition, AZT was also assayed during each experiment as a positive drug control. The plates were incubated at 37° C. and 5% CO2 for 4 days. Cell-free supernatants were collected on Day 4 for use in a p24 antigen ELISA assay. P24 antigen is a core protein of HIV and therefore is an indirect measure of virus present in the supernatants. Toxicity was determined by performing cell counts by a Coulter Counter on the mock-infected H9 cells which had either received culture medium (no toxicity), test sample, or AZT.
Compounds of the present invention were assayed for anti-HIV activity according to the following assay procedures. The T cell line, H9, and the promonocytic cell line, U937, were maintained separately in continuous culture with complete medium (RPMI 1640 with 10% fetal calf serum) at 5% CO2 and 37° C. The cell lines were used in experiments only when in the logarithmic phase of growth, whereas uninfected peripheral blood mononuclear cells (PBMCs) were first stimulated with PHA (1 μg/mL) for three days. All cell targets were incubated with HIV-1 (IIIB isolate, TCID50 10^4 IU/ml, at a multiplicity of infection of […] IU/cell) for one hour at 37° C. and 5% CO2. The cell lines and PBMCs were washed thoroughly to remove unadsorbed virions and resuspended at 4×10^5 cells/ml in complete medium or complete medium with 10% v/v interleukin 2 (IL-2) , respectively. One ml. aliquots were placed into wells of 24-well culture plates containing an equal volume of test compounds (diluted in the appropriate culture medium). The toxicity of each compound was assessed by determining the number of compound-exposed uninfected cells that remained after four days at 37° C. and 5% CO2. A p24 antigen ELISA assay was used to determine the level of virus released in the medium of the HIV-infected cultures. The p24 antigen assay used a HIV-1 anti-p24 specific monoclonal antibody as the capture antibody coated onto 96-well plates. Following a sample incubation period, rabbit serum containing antibodies for HIV-1 p24 was used to tag any p24 captured onto the microtiterwell surface. Peroxidase conjugated goat anti-rabbit serum was then used to tag HIV-1 p24 specific rabbit antibodies that had complexed with captured p24. […] The cutoff for the p24 ELISA assay was 12.5 pg/ml. P24 in the culture medium was quantitated against a standard curve containing known amounts of p24. […]

[2] = test system: HIV-1 (IIIB isolate); assay: HIV-1 inhibition (p24 antigen ELISA) in infected H9 lymphocytes; format: cell-based; conditions: for EC50: Human immunodeficiency virus 1, IIIB, Lymphocyte, 96 h, read-out: Anti-HIV Activity EC50; for Therapeutic Index (TI = IC50/EC50): H9 cells, average of at least two experiments; for anti-HIV activity, result in words / TI, result in words: H-9 lymphocytes; for anti-HIV activity, result in words: EC50 compared with related compounds; for TI, result in words: compared with related compounds
Method: as §1, with “Aliquot” for “The biological evaluation of HIV-1 inhibition was carried out according to established protocols, (Kashiwada, Y., et al., J Med Chem. 39:1016-1017 (1996); Hashimoto, F., et al., Bioorg. & Med Chem. 5:2133-2143 (1997)). The T cell line, H9, was maintained in continuous culture with complete medium (RPMI 1640 with 10% fetal calf serum supplemented with L-glutamine at 5% CO2 and 37° C.). Aliquot”, “achieved.” for “achieved. As the test samples were being prepared, an aliquot of the H9 cell line was infected with HIV-1 (IIIB isolate) while another aliquot was mock-infected with complete medium.”
Compounds of the present invention were assayed for anti-HIV activity according to the following assay procedures. […] The cell lines were used in experiments only when in the logarithmic phase of growth, whereas uninfected peripheral blood mononuclear cells (PBMCs) were first stimulated with PHA (1 μg/mL) for three days. […] The cell lines and PBMCs were washed thoroughly to remove unadsorbed virions and resuspended at 4×10^5 cells/ml in complete medium or complete medium with 10% v/v interleukin 2 (IL-2) , respectively. One ml. aliquots were placed into wells of 24-well culture plates containing an equal volume of test compounds (diluted in the appropriate culture medium). The toxicity of each compound was assessed by determining the number of compound-exposed uninfected cells that remained after four days at 37° C. and 5% CO2. A p24 antigen ELISA assay was used to determine the level of virus released in the medium of the HIV-infected cultures. The p24 antigen assay used a HIV-1 anti-p24 specific monoclonal antibody as the capture antibody coated onto 96-well plates. […] P24 in the culture medium was quantitated against a standard curve containing known amounts of p24. The effective (EC50) and inhibitory (IC50) concentrations for anti-HIV activity and cytotoxicity, respectively, were determined.

[3] = toxic to 50% of mock-infected H9 cells, 4 days, average of at least two experiments, read-out: Cytotoxicity IC50

| Structure (SMILES) | CC50 at 96 h [1, 3] [µM] | CC50 at 96 h ([1]; h9 cells) [µM] | EC50 [2] [µM] | Therapeutic Index (TI = IC50/EC50) [2] | anti-HIV activity, result in words [2] | TI, result in words [2] | fold more potent than compound 2 ([2]; compared with compound 2) | fold drop in TI on saturation of C20-C29 double bond ([2]; compared with compound 4) [fold] | fold drop in activity on saturation of C20-C29 double bond ([2]; compared with compound 4) [fold] | fold more potent than compound 3 ([2]; compared with compound 3 (betulin)) [fold] |
| --- | --- | --- | --- | --- | --- | --- | --- | --- | --- | --- |
| Cc1cn([C@H]2C[C@H](N=[N+]=[N-])[C@@H](CO)O2)c(=O)[nH]c1=O [AZT, reference compound] | 500 |  |  |  |  |  |  |  |  |  |
| C=C(C)[C@@H]1CC[C@]2(C(=O)O)CC[C@]3(C)[C@H](CC[C@@H]4[C@@]5(C)CC[C@H](OC(=O)CC(C)(C)CC(=O)O)C(C)(C)[C@@H]5CC[C@]43C)[C@@H]12 [Compound 2, reference compound] |  | 4.5 | 0.0023 |  |  |  |  |  |  |  |
| C=C(C)[C@@H]1CC[C@]2(CO)CC[C@]3(C)[C@H](CC[C@@H]4[C@@]5(C)CC[C@H](O)C(C)(C)[C@@H]5CC[C@]43C)[C@@H]12 [Compound 3, betulin] | 43.7 |  | 23 | 1.9 | less potent than betulinic acid (1) |  |  |  |  |  |
| C=C(C)[C@@H]1CC[C@]2(COC(=O)CC(C)(C)CC(=O)O)CC[C@]3(C)[C@H](CC[C@@H]4[C@@]5(C)CC[C@H](OC(=O)CC(C)(C)CC(=O)O)C(C)(C)[C@@H]5CC[C@]43C)[C@@H]12 [Compound 4, 3,28-Di-O-(3',3'-dimethylglutaryl)-betulin] |  | 14.2 | 0.00066 | 21,515 | significantly enhanced activity; also recorded: remarkable anti-HIV activity even greater than that of the betulinic acid derivative 2 | remarkably high therapeutic index (TI); also recorded: higher TI than compound 2 | about 3 fold |  |  |  |
| C=C(C)[C@@H]1CC[C@]2(COC(=O)CC(C)(CC)CC(=O)O)CC[C@]3(C)[C@H](CC[C@@H]4[C@@]5(C)CC[C@H](OC(=O)CC(C)(CC)CC(=O)O)C(C)(C)[C@@H]5CC[C@]43C)[C@@H]12 (stereo partly shown) [Compound 5, 3,28-Di-O-(3',3'-methylethylglutaryl)-betulin] |  | 18.4 | 0.0053 | 3,476 | in the nanomolar range; also recorded: less active compared with compound 4 |  |  |  |  |  |
| C=C(C)[C@@H]1CC[C@]2(COC(=O)CC3(CC(=O)O)CCCC3)CC[C@]3(C)[C@H](CC[C@@H]4[C@@]5(C)CC[C@H](OC(=O)CC6(CC(=O)O)CCCC6)C(C)(C)[C@@H]5CC[C@]43C)[C@@H]12 [Compound 6, 3,28-Di-O-(3',3'-tetramethyleneglutaryl)-betulin] |  | 20.5 | 0.077 | 267 | in the nanomolar range; also recorded: less active compared with compound 4; also recorded: least activity | lowest TI values |  |  |  |  |
| CC(C)[C@@H]1CC[C@]2(COC(=O)CC(C)(C)CC(=O)O)CC[C@]3(C)[C@H](CC[C@@H]4[C@@]5(C)CC[C@H](OC(=O)CC(C)(C)CC(=O)O)C(C)(C)[C@@H]5CC[C@]43C)[C@@H]12 [Compound 8, 3,28-Di-O-(3',3'-dimethyglutaryl)-dihydrobetulin] |  | 10.6 | 0.0047 | 2,253 |  |  |  | ~9 | ~7 |  |
| CCC(C)(CC(=O)O)CC(=O)OC[C@]12CC[C@@H](C(C)C)[C@@H]1[C@H]1CC[C@@H]3[C@@]4(C)CC[C@H](OC(=O)CC(C)(CC)CC(=O)O)C(C)(C)[C@@H]4CC[C@@]3(C)[C@]1(C)CC2 (stereo partly shown) [Compound 9, 3,28-Di-O-(3',3'-methylethylglutaryl)-dihydrobetulin] |  | 18.7 | 0.075 | 248 | less inhibition than the unsaturated 5 and 6 |  |  |  |  |  |
| CC(C)[C@@H]1CC[C@]2(COC(=O)CC3(CC(=O)O)CCCC3)CC[C@]3(C)[C@H](CC[C@@H]4[C@@]5(C)CC[C@H](OC(=O)CC6(CC(=O)O)CCCC6)C(C)(C)[C@@H]5CC[C@]43C)[C@@H]12 [Compound 10, 3,28-Di-O-(3',3'-tetramethyleneglutaryl)-dihydrobetulin] |  | 21.6 | 0.58 | 37 | less inhibition than the unsaturated 5 and 6; also recorded: least activity | lowest TI values |  |  |  |  |
| C=C(C)[C@@H]1CC[C@]2(COC(=O)CC(C)(C)CC(=O)O)CC[C@]3(C)[C@H](CC[C@@H]4[C@@]5(C)CC[C@H](O)C(C)(C)[C@@H]5CC[C@]43C)[C@@H]12 [Compound 11, 28-O-(3',3'-Dimethylglutaryl)-betulin] |  | 28.2 | 3.6 | 7.8 | much less potent than 4 |  |  |  |  | 6 |
| C=C(C)[C@@H]1CC[C@]2(COC(=O)CC(C)(C)CC(=O)O)CC[C@]3(C)[C@H](CC[C@@H]4[C@@]5(C)CCC(=O)C(C)(C)[C@@H]5CC[C@]43C)[C@@H]12 [Compound 12, 3-Deoxy-3-oxo-28-O-(3',3'-dimethylglutaryl)-betulin] |  | 29.2 | 10 | 2.9 | decreased activity further |  |  |  |  |  |
| C=C(C)[C@@H]1CC[C@]2(COC(=O)CC(C)(C)CC(=O)O)CC[C@]3(C)[C@H](CC[C@@H]4[C@@]5(C)CC=CC(C)(C)[C@@H]5CC[C@]43C)[C@@H]12 [Compound 14] |  | 28.3 | 5.4 | 5.2 | increased anti-HIV activity |  |  |  |  |  |
